# Results: US9107948B2, “Compounds for diagnosing diseases associated with the expression of MUC5AC” (Guerbet, priority 2010, dated 2015)
# pKd: −log10 of the molar value. Where “and” joins values, the source holds several entries; their conditions need not be identical. Equal entries are not always repeated. Positions of bridges follow the written chain, without caps; N, C: chain ends. Residues, ends and D or L forms follow the SMILES beside them. No end group written: not given here.
# Columns and labels:
# [1] = system: HCT116 cells (control cells, MUC5AC-negative); test: USPIO binding test on colonic control cells, iron assay by relaxometry; type: cell-based, human; settings: control cells HCT116, 1/2/4/8 mM iron, 1 H at 37° C.
# Method: (§1) After 21 days of culture for HT29-5M21 cells (MUC5AC cells), the literature reports that MUC5AC is massively expressed. […] The cells are rinsed with PBS at 4° C. and then directly brought into contact with 0.5 ml of USPIO diluted in PBS, for 1 H at 37° C. (incubator, 5% CO2). The USPIOs are tested at various iron concentrations of 1/2/4/8 mM on each of the lines. After the supernatant has been drawn off, the cells are washed twice with PBS and then scraped so as to subsequently be taken up with 250 μl of PBS (twice). The suspensions are subsequently freeze-dried and then taken up with 100 μl of a 5N HCl solution for 4 H at 80° C. in a water bath. The assay is then carried out using Paris reagent, before carrying out the relaxometry (Bruiser Minispec 60 MHz). The secretion of MUC5AC by the HT29 model and the absence of secretion with HCT116 were verified in the study.
# [2] = Plasma kinetics: iron concentration by relaxometry in plasma of imaged mice; type: in vivo; settings: 1 h-1 h 30 after injection
# Excerpt: IV.2 Plasma Kinetics: Calculation of the Concentration of USPIO Contained in the Plasma of the Imaged Mice
# It can be observed in table 3 that the iron concentrations are proportional to the dose of product injected.
# [3] = Relaxivity measurements; type: physicochemical; settings: 37° C.
# Method: […] The longitudinal relaxation time T1 is measured using an inversion recovery sequence and the transverse relaxation time T2 is measured using a CPMG technique.
# The relaxation rates R1 (=1/T1) and R2 (=1/T2) were calculated for various concentrations of total metal (ranging from 0.1×10^−3 to 1×10^−3 mol/l) in aqueous solution at 37° C. The correlation between R1 or R2 as a function of the concentration is linear, and the slope represents the relaxivity r1 (R1/C) or r2 (R2/C) expressed as (1/second)×(1/mmol/l), i.e. (mM^−1·s^−1).
# [4] = system: MUC5AC-positive tumor (HT29 5M21 xenograft); test: Molecular MRI (RARE, 7T) of tumor in mice bearing MUC5AC-positive tumor; type: in vivo
# Method: (§2) The selected imaging parameters are the following: • RARE (rapid acquisition with relaxation enhancement) sequence (7T) • TR/TEeff=3000/48.7 ms, • RARE factor=4, • NEX=4, • Matrix=256×256 • FOV=2.3 cm • slice thickness=1 mm • 20 axial slices • spatial resolution=90 μm • acquisition time=12 min 48 s Mice: • bearing an MUC5AC-positive tumor were injected with PEG750-C60c (100 μmol/kg), • bearing an MUC5AC-positive tumor were injected with the control compound (100 μmol/kg) and • bearing an MUC5AC-negative tumor were injected with PEG750-C60c (100 μmol/kg).
# [5] = Particle size (PCS) and magnetic characterization; type: physicochemical
# Method: Determined by PCS (Malvern 4700 instrument, laser 488 nm at 90°) on a sample diluted to ˜1 millimolar with water for injection filtered through 0.22 μm.
# [6] = system: mucin MUC5AC in the stomach; test: Molecular MRI (RARE, 7T) of the stomach of tumor-bearing mice; type: in vivo; settings: mice bearing MUC5AC-positive or -negative tumor
# Method: as §2
# MUC5AC. […] Indeed, using PEG750-C60c at equal concentration in animals having tumors with an opposite MUC5AC expression profile, but having the same mucin secretion characteristic in the stomach, a differential response was clearly observed in the tumor, but not in the stomach.
# [7] = system: mouse gastric tissue; test: Detection of USPIOs on mouse stomach sections after in vivo injection (anti-PEG antibody); settings: section of mouse stomach
# Excerpt: (§3) In the experiments carried out, the PEG750-C60C was detected using the anti-PEG antibody on HT295M21 xenograft, on HCT116 xenograft and on a section of mouse stomach without counterstaining. The control compound was detected on a section of mouse stomach without counterstaining. The sections were visualized in parallel with an anti-MUC5AC antibody on HT295M21 and HCT116.
# [8] = system: HT295M21 and HCT116 xenografts; test: Detection of USPIOs on tumor xenograft tissue after in vivo injection (anti-PEG antibody); parameters: species or system mice
# Excerpt: as §3
# [9] = system: MUC5AC-negative tumor (HCT116 xenograft); test: Molecular MRI (RARE, 7T) of tumor in mice bearing MUC5AC-negative tumor; type: in vivo
# Method: as §2
# [10] = system: HT29-5M21 cells (MUC5AC cells); test: USPIO binding test on colonic cell model, iron assay by relaxometry; type: cell-based, human; settings: increasing concentrations 1/2/4/8 mM iron, 1 H at 37° C.
# Method: as §1
# [11] = biological target: mouse MUC5AC glycoprotein; test: ELISA on MUC5AC purified from mouse stomach; type: binding; settings: ELISA (FIG. 2), read-out: apparent dissociation constant K*d
# Method: (§4) The interaction between the peptide and MUC5AC is evaluated by means of an ELISA assay. The mucin MUC5AC (purified from pieces of human tumor on the basis of mucin extraction and purification protocols described in literature) is immobilized on a plate at the concentration of 12.5 μg/ml overnight at 4° C. The nonspecific sites are then saturated in a buffer enriched with milk, for 2 hours at 4° C. After several rinses, the peptide CPSIYPLLC (SEQ ID No: 2) coupled to biotin is incubated at increasing concentrations (10^−3M and 10^−6M) for 2 hours at 37° C. The biotinylated peptides bound to MUC5AC are visualized using goat anti-biotin antibodies incubated for one hour at ambient temperature and then diluted in PBS at 1 μg/ml. After removal of the unbound antibodies, a second incubation for one hour at ambient temperature is carried out in the presence of peroxidase-labeled anti-goat antibodies at 0.2 μg/ml, diluted in PBS supplemented with 0.1% of Tween-20. The peroxidase coloration reaction is carried out in the presence of H2O2-enriched ABTS. The measurement of the OD at 405 nm makes it possible to calculate the K*d MUC5AC value. The interaction between the peptide and MUC5AC is also evaluated by means of the previously described ELISA assay on the mucin MUC5AC purified beforehand from mouse and rat stomach.
# [12] = biological target: T1, MUC5AC (Homo sapiens, UniProt P98088); test: Labeling of tissue sections with biotinylated peptide (specificity); settings: FIG. 4
# T1 construct: Sections of healthy gastric and colonic mucosae and of human colorectal adenoma; from tissue; host or cells: paraffin sections of human gastric epithelium and colorectal adenoma
# Method: (§5) Sections of healthy gastric and colonic mucosae and of human colorectal adenoma (5 μm thick) were fixed for 24 h with 4% paraformaldehyde and embedded in paraffin. For the labeling, the sections were first of all deparaffinized in toluene and rehydrated in 95% alcohol. After rinsing in water, the slides are brought to boiling for 10 minutes in a citrate buffer (50 mM, pH 4). Once the temperature of the buffer has returned to 25-30° C., the slides are then rinsed with PBS and then successively incubated for 15 minutes in a 0.15% hydrogen peroxide (H2O2) solution and a kit for blocking the endogenous biotin for 1 h. The sections are then blocked using a milk-enriched buffer for 1 h at ambient temperature, and are then incubated at 4° C. for 18 h with the peptides at various concentrations (20 μM, 10 μM, 1 μM, 0.2 μM, 0.04 μM) or the antibodies (MUC5AC: PM8 at a 1/100 dilution and MUC2: Lum2-3 at a 1/100 dilution) diluted in PBS. The biotinylated peptides bound to the target are visualized using goat anti-biotin antibodies incubated for one hour at ambient temperature and then diluted in PBS at 1 μg/ml. A second incubation for one hour at ambient temperature is carried out in the presence of peroxidase-labeled anti-goat antibodies at 0.2 μg/ml diluted in PBS supplemented with 0.1% of Tween-20. […]
# [13] = biological target: T2, MUC2 glycoprotein (Homo sapiens, UniProt Q02817); test: Labeling of colonic adenoma sections, recognition of MUC2; settings: FIG. 4
# T2 construct: Sections of healthy gastric and colonic mucosae and of human colorectal adenoma; from tissue; host or cells: paraffin sections of human colonic adenoma
# Method: as §5
# [14] = biological target: rat MUC5AC glycoprotein; test: ELISA on MUC5AC purified from rat stomach; type: binding; settings: ELISA (FIG. 2), read-out: apparent dissociation constant K*d
# Method: as §4
molecule,measurement,setting,value
"PEG750-C60c (CPSIYPLLC; not fully specified; cysteine pairing not given here; also: PEG750 attached, site not given here, coupled to iron particle)",iron concentration on the cells,[1],does not change proportionally
same,Iron concentration in the plasma,"[2]; MUC5AC-negative mice, 20 μmol Fe/kg",471.5 µmol/L
same,Iron concentration in the plasma,"[2]; MUC5AC-negative mice, 20 μmol Fe/kg, listed as PEG750-C60C",442.5 µmol/L and 350.7 µmol/L and 337 µmol/L
same,Iron concentration in the plasma,"[2]; MUC5AC-negative mice, 100 μmol Fe/kg",2806 µmol/L and 3638 µmol/L
same,Iron concentration in the plasma,"[2]; MUC5AC-positive mice, 20 μmol Fe/kg",486.8 µmol/L and 380 µmol/L
same,Iron concentration in the plasma,"[2]; MUC5AC-positive mice, 20 μmol Fe/kg, listed as PEG750-C60C",312.4 µmol/L
same,Iron concentration in the plasma,"[2]; MUC5AC-positive mice, 40 μmol Fe/kg",909.6 µmol/L
same,Iron concentration in the plasma,"[2]; MUC5AC-positive mice, 100 μmol Fe/kg",1555.5 µmol/L
same,Iron concentration in the plasma,"[2]; MUC5AC-positive mice, 100 μmol Fe/kg, listed as PEG750-C60C",2590 µmol/L and 3871 µmol/L and 1959 µmol/L
same,relaxivity r1,[3]; 20 MHz,30.54 s⁻¹ mM⁻¹
same,relaxivity r1,[3]; 60 MHz,14.94 s⁻¹ mM⁻¹
same,signal variation in the tumor (ΔSI),"[4]; 20 μmol of iron/kg, post-contrast",−10%
same,signal variation in the tumor (ΔSI),[4]; 100 μmol of iron/kg,−15%
same,MRI image contrast of the tumor,[4]; 100 μmol/kg,negative contrast image
same,Magnetic diameter,[5],7.2 nm
same,Magnetization at saturation (magn.),[5],70 Am^2/Kg
same,hydrodynamic diameter Z ave (PCS),[5],28 nm
same,MRI image of the gastric region in contact with the lumen,[6],clear darkening
same,labeling / accumulation in the mouse gastric tissue,[7],specific labeling
same,accumulation in the tumors,[8],only when they secrete MUC5AC
same,MRI image contrast of the tumor,[9]; 100 μmol/kg,no variation in contrast
same,change of signal in the tumor,[9]; same conditions (20 and 100 μmol of iron/kg),no change or a slight increase
same,iron concentration on the cells,[10],significantly increases
"CC[C@H](C)[C@@H]1NC(=O)[C@H](CO)NC(=O)[C@@H]2CCCN2C(=O)[C@@H](N)CSSC[C@@H](C(N)=O)NC(=O)[C@H](CC(C)C)NC(=O)[C@H](CC(C)C)NC(=O)[C@@H]2CCCN2C(=O)[C@H](Cc2ccc(O)cc2)NC1=O [peptide CPSIYPLLC, Cys-Pro-Ser-He-Tyr-Pro-Leu-Leu-Cys] (H-CPSIYPLLC-NH2; disulfide 1-9; N-terminus and C-terminus assumed)",pKd,[11],3.26
same,labeling of sections of healthy human gastric epithelia,[12],demonstrate the specificity
same,recognition of the MUC2 glycoprotein on sections of colonic adenoma,[13],absence of recognition
same,pKd,[14],3.18
